In ChEMBL document CHEMBL4049409, “Structure-based discovery of LpxC inhibitors” (Bioorg Med Chem Lett, 2017) one finds IC50 and MIC data, which are given here for 10 compounds.

Converted amounts (≈) assume the structure as drawn.

Assay [1] can be described thus: Inhibition of LpxC in Klebsiella pneumoniae isolate 21 ATCC 4352.
Assay [2] concerns the target T1, UDP-3-O-acyl-N-acetylglucosamine deacetylase (Escherichia coli K-12, UniProt P0A725).
T1 sequence (P0A725 whole entry): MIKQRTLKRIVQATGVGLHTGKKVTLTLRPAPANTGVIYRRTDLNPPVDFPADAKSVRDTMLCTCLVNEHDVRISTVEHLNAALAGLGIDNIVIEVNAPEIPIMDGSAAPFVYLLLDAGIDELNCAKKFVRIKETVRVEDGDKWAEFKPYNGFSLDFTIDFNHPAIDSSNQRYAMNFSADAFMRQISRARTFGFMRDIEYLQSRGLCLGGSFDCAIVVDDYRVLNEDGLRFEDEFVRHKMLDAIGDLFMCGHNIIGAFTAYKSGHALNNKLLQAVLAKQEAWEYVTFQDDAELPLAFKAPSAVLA
Nature of the assay: Inhibition of LpxC in Escherichia coli isolate 35 ATCC 25922. Further details: species or system Escherichia coli ATCC 25922.

The subject of assay [3] is Escherichia coli. Nature of the assay: Antibacterial activity against Escherichia coli isolate 35 ATCC 25922. Type of assay: functional.
The subject of assay [4] is Pseudomonas aeruginosa. Nature of the assay: Antibacterial activity against Pseudomonas aeruginosa isolate 44 ATCC 27853. Type of assay: functional.
Assay [5] deals with Acinetobacter baumannii. Nature of the assay: Antibacterial activity against Acinetobacter baumannii focus ID 961025. Type of assay: functional.
For assay [6], the system named is Klebsiella pneumoniae. Briefly: Antibacterial activity against Klebsiella pneumoniae isolate 21 ATCC 4352. Type of assay: functional.
Assay [7] has as its target T2, UDP-3-O-acyl-N-acetylglucosamine deacetylase (Pseudomonas aeruginosa (strain ATCC 15692 / PAO1 / 1C / PRS 101 / LMG12228), UniProt P47205).
T2 sequence (P47205 whole entry): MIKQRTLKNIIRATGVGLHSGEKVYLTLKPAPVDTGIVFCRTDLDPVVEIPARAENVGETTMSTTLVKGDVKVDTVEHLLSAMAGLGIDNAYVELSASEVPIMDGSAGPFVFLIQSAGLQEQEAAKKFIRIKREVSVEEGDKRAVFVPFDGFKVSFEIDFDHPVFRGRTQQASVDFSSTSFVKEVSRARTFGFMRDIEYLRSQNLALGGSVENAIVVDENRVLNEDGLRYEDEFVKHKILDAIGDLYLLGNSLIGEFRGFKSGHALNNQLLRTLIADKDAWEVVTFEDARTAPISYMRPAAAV
Briefly: Inhibition of LpxC in Pseudomonas aeruginosa isolate 44 ATCC 27853.

Assay [8] can be described thus: Inhibition of LpxC in Acinetobacter baumannii focus ID 961025.

The IC50 is the midpoint of a concentration-inhibition curve. A lower IC50 goes with inhibition by little substance. The term MIC denotes the smallest concentration in the dilution series that meets the test's criterion for growth inhibition. A high value points to a less susceptible organism.

For `CCCC(N[C@H](C(=O)NO)[C@@H](C)O)c1ccc(C#Cc2ccccc2)cc1` (stereo not given in full), the half-inhibitory concentration (IC50) in assay [1] was found to be 0.053 µM; in assay [2] it was 0.06 µM; in assay [7], 0.05 µM; in assay [8], 0.273 µM. The minimum inhibitory concentration (MIC) in assay [3] came out at 2 mg/L (≈ 5.46 µM); in assay [4], 64 mg/L (≈ 175 µM); in assay [5], 32 mg/L (≈ 87.3 µM); in assay [6] it was 0.25 mg/L (≈ 0.682 µM).
In the case of `C[C@@H](O)[C@H](NC1CN(C)Cc2cc(C#Cc3ccccc3)ccc21)C(=O)NO` (stereo not given in full), the IC50 was 0.018 µM in assay [1], 0.028 µM in assay [2], 0.108 µM in assay [7] and 0.31 µM in assay [8]. The MIC in assay [3] is 2 mg/L (≈ 5.27 µM); in assay [4], > 128 mg/L; in assay [5], > 128 mg/L; in assay [6] it was 0.5 mg/L (≈ 1.32 µM).
For `C[C@@H](O)[C@H](NC1CCN(C)c2cc(C#Cc3ccccc3)ccc21)C(=O)NO` (stereo not given in full), the IC50 in assay [1] came to 0.004 µM; in assay [2], 0.002 µM; in assay [7], 0.015 µM; in assay [8] it was 0.124 µM. For the same compound, the minimal inhibitory concentration (MIC) in assay [3] was 8 mg/L (≈ 21.1 µM); in assay [4], > 128 mg/L; in assay [5] it was > 128 mg/L; in assay [6] it was 1 mg/L (≈ 2.64 µM).
On to `C[C@@H](O)[C@H](NC1CCOc2cc(C#Cc3ccccc3)ccc21)C(=O)NO` (stereo not given in full), for which the IC50 was 0.008 µM in assay [1], 0.011 µM in assay [2], 0.013 µM in assay [7] and 0.036 µM in assay [8]. The MIC in assay [3] is 2 mg/L (≈ 5.46 µM); in assay [4], 128 mg/L (≈ 349 µM); in assay [5] it was 32 mg/L (≈ 87.3 µM); in assay [6], < 0.125 mg/L.
Consider `C[C@@H](O)[C@H](NCc1ccc(C#Cc2ccccc2)cc1)C(=O)NO`, for which the concentration for half-maximal inhibition (IC50) is 0.048 µM in assay [1], 0.067 µM in assay [2], 0.02 µM in assay [7] and 0.017 µM in assay [8]. The minimal inhibitory concentration (MIC) in assay [3] is 4 mg/L (≈ 12.3 µM); in assay [4], > 128 mg/L; in assay [5], 32 mg/L (≈ 98.6 µM); in assay [6], 0.5 mg/L (≈ 1.54 µM).
Regarding `C[C@@H](O)[C@H](NC1COCc2cc(C#Cc3ccc(CN4CCOCC4)cc3)ccc21)C(=O)NO` (stereo not given in full), the IC50 in assay [1] was 0.001 µM; in assay [2], 0.001 µM; in assay [7], 0.006 µM; in assay [8], 0.025 µM. Besides, the minimal inhibitory concentration (MIC) is 0.25 mg/L (≈ 0.537 µM) in assay [3], 64 mg/L (≈ 137 µM) in assay [4], 64 mg/L (≈ 137 µM) in assay [5] and < 0.125 mg/L in assay [6].
On to `CCC(N[C@H](C(=O)NO)[C@@H](C)O)c1ccc(C#Cc2ccccc2)cc1` (stereo not given in full), for which the IC50 in assay [1] was found to be 0.12 µM; in assay [2], 0.215 µM; in assay [7], 0.214 µM; in assay [8], 0.566 µM. Also, the minimum inhibitory concentration (MIC) in assay [3] was 4 mg/L (≈ 11.3 µM); in assay [4] it was > 64 mg/L; in assay [5], > 64 mg/L; in assay [6] it was 2 mg/L (≈ 5.67 µM).
Regarding `CC(N[C@H](C(=O)NO)[C@@H](C)O)c1ccc(C#Cc2ccccc2)cc1` (stereo not given in full), the IC50 in assay [1] is 0.064 µM; in assay [2], 0.096 µM; in assay [7] it was 0.072 µM; in assay [8], 0.16 µM. Moreover, the MIC in assay [3] is 4 mg/L (≈ 11.8 µM); in assay [4], > 64 mg/L; in assay [5] it was 64 mg/L (≈ 189 µM); in assay [6], 1 mg/L (≈ 2.96 µM).
Take `C[C@@H](O)[C@H](NC1CCCCc2cc(C#Cc3ccccc3)ccc21)C(=O)NO` (stereo not given in full): the IC50 in assay [1] stood at 0.072 µM; in assay [2], 0.109 µM; in assay [7], 0.333 µM; in assay [8] it was 1.16 µM. Besides, the MIC in assay [3] is 16 mg/L (≈ 42.3 µM); in assay [4], > 128 mg/L; in assay [5], > 128 mg/L; in assay [6] it was 2 mg/L (≈ 5.28 µM).
Consider `C[C@@H](O)[C@H](NC1CCc2cc(C#Cc3ccccc3)ccc21)C(=O)NO` (stereo not given in full), for which the IC50 in assay [1] was 0.005 µM; in assay [2] it was 0.007 µM; in assay [7], 0.02 µM; in assay [8], 0.165 µM. Also, the minimal inhibitory concentration (MIC) was determined as 0.5 mg/L (≈ 1.43 µM) in assay [3], 32 mg/L (≈ 91.3 µM) in assay [4], 16 mg/L (≈ 45.7 µM) in assay [5] and 0.125 mg/L (≈ 0.357 µM) in assay [6].
